# Tests used:
# Format in all cases: in vivo
# Rice = test: Compound (A) with prosulfuron, weed plots; conditions: 13 DAA, No. 3.29
# Method: (§1) In these tests, various weeds were treated with prosulfinuron alone at a rate equivalent to 35 g per hectare, […] and Compound (A) at rates equivalent to the sum of these. The compositions were formulated as an emulsifiable concentrate (EC).
# (§2) The results in the tables under each application are the percentage of the plants that were killed.
# Brachiaria = test: Compound (A) with prosulfuron, weed plots; conditions: 13 DAA, No. 3.27
# Method: as §1, §2
# Euphorbia = test: Compound (A) with prosulfuron, weed plots; conditions: 13 DAA, No. 3.28
# Method: as §1, §2
# Wheat = test: Compound (A) with prosulfuron, weed plots; conditions: 13 DAA, No. 3.30
# Method: as §1, §2
# Veronica = test: Compound (A) with prosulfuron, weed plots; conditions: 13 DAA, No. 3.25
# Method: as §1, §2
# SETARIA VIRIDIS [1] = test: Compound (A) with nicosulfuron, weed plots; conditions: 4 DAA, No. 3.11
# Method: (§3) In these tests, various weeds were treated with nicosulfuron alone at a rate equivalent to 35 g per hectare, […] and Compound (A) at rates equivalent to the sum of these. The compositions were formulated as an emulsifyable concentrate (EC).
# (§4) The results in the table under each application are the percentage of the plants that were killed.
# SETARIA SP. [2] = test: Compound (A) with nicosulfuron, weed plots; conditions: 21 DAA, No. 3.4
# Method: as §3, §4
# DIGITARIA SANGUINALIS = test: Compound (A) with nicosulfuron, weed plots
# Method: as §3, §4
# SESBANIA EXALTATA = test: Compound (A) with nicosulfuron, weed plots
# Method: as §3, §4
# Ipomoea = test: Compound (A) with primisulfuron, weed plots; conditions: 44 DAA, Trial 3.21
# Method: In these tests, various weeds were treated with primisulfuron alone at a rate equivalent to 35 g per hectare, […] and Compound (A) at rates equivalent to the sum of these. The compositions were formulated as an emulsifiable concentrate (EC).
# as §2
# STELLARIA MEDIA = test: Compound (A) with triasulfuron, weed plots; conditions: 10 g per hectare; 30 DAA; No. 3.1
# Method: In these tests, various weeds were treated with triasulfuron alone at a rate equivalent to 26 g per hectare, Compound (A) alone at a rate equivalent to 10 g per hectare, and to a mixture of triasulfuron and Compound (A) at rates equivalent to the sum of these. The compositions were formulated as an emulsifyable concentrate (EC).
# as §4
# DIGITARIA CILIARIS = test: Compound (A) with paraquat, weed plots; conditions: 20 g/ha; 51 DAA; No. 1.7
# Method: (§5) In these tests, various weeds were treated with paraquat alone at rates equivalent to 700 g per hectare and 840 g per hectare, compound (A) alone at rates equivalent to 10 g per hectare and 20 g per hectare, and with a mixture of paraquat and compound (A) at rates equivalent to the sum of these. The compositions were formulated as an emulsifyable concentrate (EC).
# (§6) The results in the table under each application are the percentage of the weeds plants that were killed.
# LAMIUM PURPUREUM = test: Compound (A) with paraquat, weed plots; conditions: 2 DAA, No. 1.5
# Method: as §5, §6
# SONCHUS ASPER = test: Compound (A) with paraquat, weed plots; conditions: 32 DAA, No. 1.10
# Method: as §5, §6
# SETARIA VIRIDIS [3] = test: Compound (A) with paraquat, weed plots; conditions: 43 DAA, No. 1.3
# Method: as §5, §6
# CYPERUS ROTUNDUS = test: Compound (A) with paraquat, weed plots; conditions: 56 DAA, No. 1.11
# Method: as §5, §6
# SETARIA SP. [4] = test: Compound (A) with paraquat, weed plots; conditions: 27 DAA, No. 1.2
# Method: as §5, §6
# LOLIUM RIGIDUM = test: Compound (A) with paraquat, weed plots; conditions: 41 DAA, No. 1.4
# Method: as §5, §6
# E[…]-GALLI = test: Compound (A) with paraquat, weed plots; conditions: 51 DAA, No. 1.8
# Method: as §5, §6
# VERONICA PERSICA = test: Compound (A) with paraquat, weed plots; conditions: 69 DAA, No. 1.6
# Method: as §5, §6
# CONYZA SP. = test: Compound (A) with paraquat, weed plots; conditions: 5 DAA
# Method: as §5, §6
compound,measurement,setting,value
CCOC(=O)COc1ncccc1Oc1cc(-n2c(=O)cc(C(F)(F)F)n(C)c2=O)c(F)cc1Cl [Compound (A)],percentage of the plants that were killed,Rice; 1.25 g/ha,50%
same,percentage of the plants that were killed,Rice; 2.5 g/ha,70%
same,percentage of the plants that were killed,Rice; 5 g/ha,90%
same,percentage of the plants that were killed,Brachiaria; 1.25 g/ha,50%
same,percentage of the plants that were killed,Brachiaria; 2.5 g/ha,60%
same,percentage of the plants that were killed,Brachiaria; 5 g/ha,98%
same,percentage of the plants that were killed,Euphorbia; 1.25 g/ha,50%
same,percentage of the plants that were killed,Euphorbia; 2.5 g/ha,70%
same,percentage of the plants that were killed,Euphorbia; 5 g/ha,70%
same,percentage of the plants that were killed,Wheat; 1.25 g/ha,80%
same,percentage of the plants that were killed,Wheat; 2.5 g/ha,95%
same,percentage of the plants that were killed,Wheat; 5 g/ha,100%
same,percentage of the plants that were killed,Veronica; 1.25 g/ha,80%
same,percentage of the plants that were killed,Veronica; 2.5 g/ha,100%
same,percentage of the plants that were killed,Veronica; 5 g/ha,100%
same,percentage of the plants that were killed,SETARIA VIRIDIS [1]; 5 g/ha,40%
same,percentage of the plants that were killed,SETARIA VIRIDIS [1]; 10 g/ha,70%
same,percentage of the plants that were killed,SETARIA VIRIDIS [1]; 20 g/ha,85%
same,percentage of the plants that were killed,SETARIA SP. [2]; 5 g/ha,50%
same,percentage of the plants that were killed,SETARIA SP. [2]; 10 g/ha,80%
same,percentage of the plants that were killed,SETARIA SP. [2]; 20 g/ha,93%
same,percentage of the plants that were killed,"DIGITARIA SANGUINALIS; 5 g/ha, 4 DAA, No. 3.6",20%
same,percentage of the plants that were killed,"DIGITARIA SANGUINALIS; 5 g/ha, 5 DAA, No. 3.14",25%
same,percentage of the plants that were killed,"DIGITARIA SANGUINALIS; 5 g/ha, 21 DAA, No. 3.5",50%
same,percentage of the plants that were killed,"DIGITARIA SANGUINALIS; 10 g/ha, 4 DAA, No. 3.6",90%
same,percentage of the plants that were killed,"DIGITARIA SANGUINALIS; 10 g/ha, 5 DAA, No. 3.14",50%
same,percentage of the plants that were killed,"DIGITARIA SANGUINALIS; 10 g/ha, 21 DAA, No. 3.5",80%
same,percentage of the plants that were killed,"DIGITARIA SANGUINALIS; 20 g/ha, 4 DAA, No. 3.6",98%
same,percentage of the plants that were killed,"DIGITARIA SANGUINALIS; 20 g/ha, 5 DAA, No. 3.14",99%
same,percentage of the plants that were killed,"DIGITARIA SANGUINALIS; 20 g/ha, 21 DAA, No. 3.5",93%
same,percentage of the plants that were killed,"SESBANIA EXALTATA; 5 g/ha, 44 DAA, No. 3.3",75%
same,percentage of the plants that were killed,"SESBANIA EXALTATA; 5 g/ha, 45 DAA, No. 3.2",65%
same,percentage of the plants that were killed,"SESBANIA EXALTATA; 10 g/ha, 44 DAA, No. 3.3",85%
same,percentage of the plants that were killed,"SESBANIA EXALTATA; 10 g/ha, 45 DAA, No. 3.2",85%
same,percentage of the plants that were killed,"SESBANIA EXALTATA; 20 g/ha, 44 DAA, No. 3.3",90%
same,percentage of the plants that were killed,"SESBANIA EXALTATA; 20 g/ha, 45 DAA, No. 3.2",90%
same,percentage of the plants that were killed,Ipomoea; 1.25 g/ha,80%
same,percentage of the plants that were killed,Ipomoea; 2.5 g/ha,100%
same,percentage of the plants that were killed,Ipomoea; 5 g/ha,100%
same,percentage of the plants that were killed,STELLARIA MEDIA,63%
same,percentage of the weeds plants that were killed,DIGITARIA CILIARIS,0%
same,percentage of the weeds plants that were killed,LAMIUM PURPUREUM; 10 g/ha,30%
same,percentage of the weeds plants that were killed,LAMIUM PURPUREUM; 20 g/ha,33%
same,percentage of the weeds plants that were killed,SONCHUS ASPER; 10 g/ha,60%
same,percentage of the weeds plants that were killed,SONCHUS ASPER; 20 g/ha,55%
same,percentage of the weeds plants that were killed,SETARIA VIRIDIS [3]; 10 g/ha,0%
same,percentage of the weeds plants that were killed,SETARIA VIRIDIS [3]; 20 g/ha,23%
same,percentage of the weeds plants that were killed,CYPERUS ROTUNDUS; 10 g/ha,0%
same,percentage of the weeds plants that were killed,CYPERUS ROTUNDUS; 20 g/ha,0%
same,percentage of the weeds plants that were killed,SETARIA SP. [4]; 10 g/ha,0%
same,percentage of the weeds plants that were killed,SETARIA SP. [4]; 20 g/ha,25%
same,percentage of the weeds plants that were killed,LOLIUM RIGIDUM; 10 g/ha,27%
same,percentage of the weeds plants that were killed,LOLIUM RIGIDUM; 20 g/ha,47%
same,percentage of the weeds plants that were killed,E[…]-GALLI; 10 g/ha,0%
same,percentage of the weeds plants that were killed,E[…]-GALLI; 20 g/ha,0%
same,percentage of the weeds plants that were killed,VERONICA PERSICA; 10 g/ha,25%
same,percentage of the weeds plants that were killed,VERONICA PERSICA; 20 g/ha,100%
same,percentage of the weeds plants that were killed,"CONYZA SP.; 10 g/ha, No. 1.1",37%
same,percentage of the weeds plants that were killed,"CONYZA SP.; 10 g/ha, No. 1.9",37%
same,percentage of the weeds plants that were killed,"CONYZA SP.; 20 g/ha, No. 1.1",40%
same,percentage of the weeds plants that were killed,"CONYZA SP.; 20 g/ha, No. 1.9",40%

# Reference: patent US20090233796A1, “HERBICIDAL COMPOSITION” (SYNGENTA CROP PROTECTION, INC., priority 2004, published 2009)
